Experimental data reported in patent publication US20020035157A1, “Pharmaceutical compositions” (priority 1999, published 2002).
Read-outs that look alike come from different tables or passages of the source.

Key:
[1] = test system: patients with osteoarthritis pain
[2] = test system: healthy individuals; details: 0.1 ml cream on 1 inch^2 of dorsum of non-dominant hand, single application, rated after 6 hours, 0-10 VAS, 40 volunteers
[3] = test system: patients with osteoarthritis pain; test: Randomised, double blind, placebo controlled study in painful osteoarthritis: pain scores, analgesic consumption, desire to continue (Example 2); format: in vivo, human; details: for Reduction in pain score (VAS): after 42 days versus baseline pain score 4.2 (mean of days 1-4); for Reduction in pain score (VAS) compared to placebo: after 42 days, decrease beyond that given by cream vehicle alone; for percentage of patients who wished to continue with treatment: after six weeks; for Tablets per day after treatment / Reduction in daily tablet consumption: analgesic use; for Tablets per day after treatment: at beginning of treatment 4 tablets per day; for Mean Pain Score after 42 days (VAS): cream four times daily for six weeks to one painful joint, 0-10 VAS, baseline pain score 4.2; for Patients not wishing to continue / Patients wishing to continue: desire to continue with current treatment after six weeks; for Reduction in daily tablet consumption: from initial mean of 4 tablets daily
[4] = test system: patients; details: cited from earlier work

Compound | initial application discomfort ([1]; equal effect to placebo) | Application discomfort - changes resulting from baseline score, Coefficient ([1]; human, in vivo) | VAS: median (range), burning discomfort [2] [VAS] | VAS: median (range), burning discomfort ([2]; listed as D) | Reduction in pain score (VAS) [3] [VAS] | Reduction in pain score (VAS) compared to placebo [3] [VAS] | percentage of patients who wished to continue with treatment [3] [%] | Tablets per day after treatment [3] [tablets per day] | Mean Pain Score after 42 days (VAS) [3] [VAS] | Patients not wishing to continue [3] [patients] | Patients wishing to continue [3] [patients] | Application discomfort - Baseline scores versus treatment, VAS ([1]; regression estimate of baseline discomfort relative to the other groups, 10 cm VAS) [VAS] | VAS: median (range), burning discomfort ([2]; listed as C) | patients who suffered burning after application ([4]; 0.025% capsaicin, Watson and colleagues, Clinical Therapeutics 1993) | patients who suffered burning discomfort after application ([4]; 0.075% capsaicin, The Capsaicin Study Group) | Reduction in daily tablet consumption [3] [tablets] | Reduction in daily tablet consumption ([3]; listed as capsaicin) [tablets]
O=[N+]([O-])OCC(CO[N+](=O)[O-])O[N+](=O)[O-] [GTN, Glyceryl trinitrate] | marginal initial discomfort | 0.33 | 0 | 0 (0-2) VAS | 0.59 | 0.37 | 27.5 | 3.52 | 3.61 | 34 | 11 |  |  |  |  |  | 
COc1cc(CNC(=O)CCCC/C=C/C(C)C)ccc1O [Capsaicin, N-(4-hydroxy-3-methoxybenzyl)-8-methylnon-trans-6-enamide] |  |  | 3 |  | 0.5 | 0.28 | 24.4 | 3.72 | 3.70 | 29 | 11 | 2.1 | 3 (0-7) VAS | 9 of 33 | 87 of 138 | 0.28 | 0.28
